Results as given in US7161032B2, “Sulfonamide derivatives, insecticides for agricultural and horticultural use, and usage thereof” (Nihon Nohyaku Co., Ltd., priority 2002, dated 2007).

Key:
Type in all cases: in vivo
[1] = test system: Common Cutworm (Spodoptera litura); experiment: Insecticidal effect on common cutworm (Test Example 2): cabbage leaf piece immersed in 50 ppm liquid chemical; conditions: common cutworm (Spodoptera litura) second-instar larvae, 8 days after inoculation, 25° C.
Protocol: A piece of cabbage leaf (cultivar: Shikidori) was immersed for about 30 seconds in a liquid chemical prepared by diluting a preparation containing each compound listed in Table 1 or 2 as an active ingredient to adjust the concentration to 50 ppm. After air-dryness, it was placed in a plastic Petri dish with a diameter of 9 cm and inoculated with second-instar larvae of common cutworm, after which the dish was closed and then allowed to stand in a room thermostated at 25° C. Eight days after the inoculation, the dead and alive were counted. The mortality was calculated according to the following equation and the insecticidal effect was judged according to the criterion shown in Test Example 1. The test was carried out with triplicate groups of 10 insects. [formula]

[2] = test system: Diamond Back Moth (Plutella xylostella); experiment: Insecticidal effect on diamond back moth (Test Example 1): egg-bearing Chinese cabbage seedling immersed in 50 ppm liquid chemical
Protocol: Adult diamond back moths were released and allowed to oviposit on a Chinese cabbage seedling. Two days after the release, the seedling having the eggs deposited thereon was immersed for about 30 seconds in a liquid chemical prepared by diluting a preparation containing each compound listed in Table 1 or 2 as an active ingredient to adjust the concentration to 50 ppm. After air-dryness, it was allowed to stand in a room thermostated at 25° C. Six days after the immersion, the hatched insects were counted. The mortality was calculated according to the following equation and the insecticidal effect was judged according to the criterion shown below. The test was carried out with triplicate groups of 10 insects. [formula]

[3] = test system: Smaller Tea Tortrix (Adoxophyes sp.); experiment: Insecticidal effect on smaller tea tortrix (Test Example 3): tea leaves immersed in 50 ppm liquid chemical; conditions: smaller tea tortrix (Adoxophyes sp.) larvae, 8 days after inoculation, 25° C., humidity 70%
Protocol: Tea leaves were immersed for about 30 seconds in a liquid chemical prepared by diluting a preparation containing each compound listed in Table 1 or 2 as an active ingredient to adjust the concentration to 50 ppm. After air-dryness, the tea leaves were placed in a plastic Petri dish with a diameter of 9 cm and inoculated with larvae of smaller tea tortrix, after which the dish was allowed to stand in a room thermostated at 25° C. and having a humidity of 70%. Eight days after the inoculation, the dead and alive were counted and the insecticidal effect was judged according to the criterion shown in Test Example 1. The test was carried out with triplicate groups of 10 insects.

SMILES	Insecticidal effect (mortality grade), Test Example 2 [1]	Insecticidal effect (mortality grade), Test Example 1 [2]	Insecticidal effect (mortality grade), Test Example 3 [3]
CCNS(=O)(=O)CCCC(C)(C)NC(=O)c1c(I)cccc1C(=O)Nc1ccc(C(F)(C(F)(F)F)C(F)(F)F)cc1C [1-200]	A (Mortality 100%)	A (Mortality 100%)	A (Mortality 100%)
Cc1cc(C(F)(C(F)(F)F)C(F)(F)F)ccc1NC(=O)c1cccc(I)c1C(=O)NC(C)CS(=O)(=O)NC(C)(C)C (stereo not drawn) [1-14]	A (Mortality 100%)	A (Mortality 100%)	A (Mortality 100%)
CCNS(=O)(=O)CC(C)NC(=O)c1ccccc1C(=O)Nc1ccc(C(F)(C(F)(F)F)C(F)(F)F)cc1C (stereo not drawn) [1-207]	A (Mortality 100%)	A (Mortality 100%)	E (Mortality less than 50%)
CONS(=O)(=O)CC(C)NC(=O)c1c(I)cccc1C(=O)Nc1ccc(C(F)(C(F)(F)F)C(F)(F)F)cc1C (stereo not drawn) [1-116]	D (Mortality 79–50%)	A (Mortality 100%)	A (Mortality 100%)
C=CCNS(=O)(=O)CC(C)NC(=O)c1c(I)cccc1C(=O)Nc1ccc(C(F)(C(F)(F)F)C(F)(F)F)cc1C (stereo not drawn) [1-20]	A (Mortality 100%)	A (Mortality 100%)	A (Mortality 100%)
Cc1cc(C(F)(C(F)(F)F)C(F)(F)F)ccc1NC(=O)c1cccc(I)c1C(=O)NC(C)CS(=O)(=O)NCC[S+](C)[O-] (stereo not drawn) [1-76]	A (Mortality 100%)	A (Mortality 100%)	A (Mortality 100%)
CCN(CC)C(=O)CNS(=O)(=O)CC(C)NC(=O)c1c(I)cccc1C(=O)Nc1ccc(C(F)(C(F)(F)F)C(F)(F)F)cc1C (stereo not drawn) [1-105]	A (Mortality 100%)	A (Mortality 100%)	E (Mortality less than 50%)
Cc1cc(C(F)(C(F)(F)F)C(F)(F)F)ccc1NC(=O)c1cccc(I)c1C(=O)NC(C)CS(=O)(=O)NCc1ccccc1Br (stereo not drawn) [1-25]	A (Mortality 100%)	A (Mortality 100%)	A (Mortality 100%)
CCSCCNS(=O)(=O)CC(C)(C)NC(=O)c1c(I)cccc1C(=O)Nc1ccc(C(F)(C(F)(F)F)C(F)(F)F)cc1C [1-84]	A (Mortality 100%)	A (Mortality 100%)	A (Mortality 100%)
CCCNS(=O)(=O)CC(C)NC(=O)c1c(I)cccc1C(=O)Nc1ccc(C(F)(C(F)(F)F)C(F)(F)F)cc1C (stereo not drawn) [1-7]	A (Mortality 100%)	A (Mortality 100%)	A (Mortality 100%)
CCN(CC)S(=O)(=O)CC(C)(C)NC(=O)c1c(I)cccc1C(=O)Nc1ccc(C(F)(F)C(F)(F)F)cc1C [1-302]	A (Mortality 100%)	A (Mortality 100%)	A (Mortality 100%)
CCN(CC)S(=O)(=O)CC(C)(C)NC(=O)c1c(I)cccc1C(=O)Nc1ccc(C(F)(C(F)(F)F)C(F)(F)F)cc1C [1-179]	A (Mortality 100%)	A (Mortality 100%)	A (Mortality 100%)
Cc1cc(C(F)(C(F)(F)F)C(F)(F)F)ccc1NC(=O)c1cccc(I)c1C(=O)NC(C)(C)CS(=O)(=O)N1CCSCC1 [1-58]	A (Mortality 100%)	A (Mortality 100%)	E (Mortality less than 50%)
Cc1cc(C(F)(C(F)(F)F)C(F)(F)F)ccc1NC(=O)c1cccc(I)c1C(=O)NC(C)(C)CS(=O)(=O)N1CC[S+]([O-])CC1C (stereo not drawn) [1-62]	A (Mortality 100%)	A (Mortality 100%)	A (Mortality 100%)
COc1cccc(OC)c1CNS(=O)(=O)CC(C)NC(=O)c1c(I)cccc1C(=O)Nc1ccc(C(F)(C(F)(F)F)C(F)(F)F)cc1C (stereo not drawn) [1-32]	A (Mortality 100%)	A (Mortality 100%)	A (Mortality 100%)
Cc1cc(C(F)(C(F)(F)F)C(F)(F)F)ccc1NC(=O)c1cccc(I)c1C(=O)NC(C)(C)CS(=O)(=O)NCC[S+](C)[O-] (stereo not drawn) [1-82]	A (Mortality 100%)	A (Mortality 100%)	A (Mortality 100%)
Cc1cc(C(F)(C(F)(F)F)C(F)(F)F)ccc1NC(=O)c1cccc(I)c1C(=O)NC(C)CS(=O)(=O)Nc1ccccc1F (stereo not drawn) [1-107]	C (Mortality 89–80%)	A (Mortality 100%)	A (Mortality 100%)
Cc1cc(C(F)(C(F)(F)F)C(F)(F)F)ccc1NC(=O)c1cccc(I)c1C(=O)N[C@@H](C)CS(=O)(=O)NCc1ccccc1 [1-146]	A (Mortality 100%)	A (Mortality 100%)	A (Mortality 100%)
Cc1cc(C(F)(C(F)(F)F)C(F)(F)F)ccc1NC(=O)c1cccc(I)c1C(=O)NC(C)(C)CS(=O)(=O)NCCS(C)(=O)=O [1-83]	A (Mortality 100%)	A (Mortality 100%)	A (Mortality 100%)
Cc1cc(C(F)(C(F)(F)F)C(F)(F)F)ccc1NC(=O)c1cccc(I)c1C(=O)NC(C)CS(=O)(=O)Nc1ccccc1 (stereo not drawn) [1-106]	E (Mortality less than 50%)	A (Mortality 100%)	E (Mortality less than 50%)
Cc1cc(C(F)(C(F)(F)F)C(F)(F)F)ccc1NC(=O)c1cccc(I)c1C(=O)NC(C)(C)CS(=O)(=O)N1CCCC1 [1-181]	A (Mortality 100%)	A (Mortality 100%)	A (Mortality 100%)
CCSCCNS(=O)(=O)CC(C)(C)NC(=O)c1c(I)cccc1C(=O)Nc1ccc(C(F)(F)C(F)(F)F)cc1C [1-307]	A (Mortality 100%)	A (Mortality 100%)	A (Mortality 100%)
Cc1cc(C(F)(C(F)(F)F)C(F)(F)F)ccc1NC(=O)c1cccc(I)c1C(=O)NC(C)CS(=O)(=O)Nc1ccc(F)cc1 (stereo not drawn) [1-110]	E (Mortality less than 50%)	A (Mortality 100%)	E (Mortality less than 50%)
CCN(CC)S(=O)(=O)CC(C)(C)NC(=O)c1c(I)cccc1C(=O)Nc1ccc(Cl)c(Cl)c1Cl [1-268]	A (Mortality 100%)	A (Mortality 100%)	A (Mortality 100%)
Cc1cc(C(F)(C(F)(F)F)C(F)(F)F)ccc1NC(=O)c1cccc(I)c1C(=O)NC(C)(C)CS(=O)(=O)NCCO [1-78]	E (Mortality less than 50%)	A (Mortality 100%)	A (Mortality 100%)
